Measurements as given in patent publication US6043278A, “Perfluoralkyl substituted metallo-beta-lactamase inhibitors” (Isis Innovation Limited, priority 1995, dated 2000).
Read-outs that look alike come from different tables or passages of the source.

Assays:
[1] = molecular target: T1, Class B β-lactamase (B. cereus enzyme) (Bacillus cereus, UniProt P04190); assay: Ki determination, initial rate of hydrolysis of reporter substrate cephalosporin C; format: biochemical
T1 construct: from a range of bacteria, including: Xanthomonas maltophilia, Bacillus cereus; endogenous in cells; host or cells: Bacillus cereus (enzyme purified from the bacterium)
T1 sequence (P04190 31-257): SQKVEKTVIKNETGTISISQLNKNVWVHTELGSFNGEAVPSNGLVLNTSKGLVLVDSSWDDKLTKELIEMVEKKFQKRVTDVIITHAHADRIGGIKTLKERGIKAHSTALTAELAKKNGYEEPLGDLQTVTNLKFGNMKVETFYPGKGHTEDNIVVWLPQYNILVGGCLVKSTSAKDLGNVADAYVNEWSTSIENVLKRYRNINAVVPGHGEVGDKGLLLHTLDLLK
Method: (§1) Class B β-lactamases were purified according to published^4 or standard procedures from a range of bacteria, including: Xanthomonas maltophilia, Bacillus cereus, Pseudomonas aeruginosa and Aeromonas hydrophila.
(§2) Assays for inhibition were also carried out according to published procedures^4. Kinetic experiments were typically carried out at 30° C. with 30 mM sodium cacodylate buffer, pH 6.5, containing 0.1 mM ZnCl2.
(§3) The Ki (inhibition constant) values were determined by analysing the initial rate of hydrolysis at different inhibitor concentrations using the following reporter substrates: 30 μm nitrocefin (X. maltophilia enzyme), 200 μM imipenem (A. hydrophila), or 1 mM cephalosporin C (B. cereus and P. aeruginosa enzymes). Data analysis was carried out according to standard kinetic procedures [Felici, A. et al., Biochem. J., 291, 151-155 (1993) and references therein].

[2] = molecular target: T2, Class B β-lactamase (P. aeruginosa enzyme) (Pseudomonas aeruginosa, UniProt Q79MP6); assay: as above; format: biochemical; conditions: competitive inhibition; 1 mM cephalosporin C; 30° C., pH 6.5, 0.1 mM ZnCl2; read-out: Ki (inhibition constant)
T2 construct: Bacillus cereus, Pseudomonas aeruginosa and Aeromonas hydrophila; endogenous in cells; host or cells: Pseudomonas aeruginosa (enzyme purified from the bacterium)
T2 sequence (Q79MP6 19-246 limits assumed): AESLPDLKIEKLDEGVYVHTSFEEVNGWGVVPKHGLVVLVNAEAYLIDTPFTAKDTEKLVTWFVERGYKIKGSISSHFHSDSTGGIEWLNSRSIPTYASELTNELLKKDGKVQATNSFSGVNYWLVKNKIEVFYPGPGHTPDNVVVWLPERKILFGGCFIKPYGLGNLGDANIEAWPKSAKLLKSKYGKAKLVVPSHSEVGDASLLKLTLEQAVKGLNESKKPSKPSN
Method: as §1, §2, §3

[3] = molecular target: T3, Class B β-lactamase (A. hydrophila enzyme) (Aeromonas hydrophila, UniProt P26918); assay: Inhibition/inactivation kinetics, reporter substrate imipenem; format: biochemical; conditions: for mode of inhibition of the A. hydrophila enzyme: further kinetic analyses, no reactivation was observed; for Ki: inactivation kinetics, 200 μM imipenem, 30° C., pH 6.5, 0.1 mM ZnCl2, read-out: K = apparent binding constant between the enzyme and substrate
T3 construct: Bacillus cereus, Pseudomonas aeruginosa and Aeromonas hydrophila; endogenous in cells; host or cells: Aeromonas hydrophila (enzyme purified from the bacterium)
T3 sequence (P26918 28-254): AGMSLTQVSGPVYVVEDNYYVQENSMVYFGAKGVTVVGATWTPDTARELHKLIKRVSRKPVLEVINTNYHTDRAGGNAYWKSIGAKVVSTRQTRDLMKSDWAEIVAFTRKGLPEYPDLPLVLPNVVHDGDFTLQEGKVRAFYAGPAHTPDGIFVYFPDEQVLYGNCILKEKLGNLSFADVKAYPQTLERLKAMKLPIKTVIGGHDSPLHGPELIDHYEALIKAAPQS
Method: as §1, §2, §3
Compounds 3, 4, 5, 6, 7 and 9 were also shown to be inhibitors of the A. hydrophila enzyme. […] The following kinetic parameters were obtained, where K=apparent binding constant between the enzyme and substrate and k+2 =apparent rate constant for inactivation as in the following scheme: [formula] Kinetic data for compound 3: K=6 μM, k+2 =4.3×10^-2 s^-1

[4] = molecular target: T4, Class B β-lactamase (X. maltophilia enzyme) (Stenotrophomonas maltophilia, UniProt P52700); assay: Ki determination, initial rate of hydrolysis of reporter substrate nitrocefin; format: biochemical, Xanthomonas maltophilia
T4 construct: standard procedures from a range of bacteria, including: Xanthomonas maltophilia; endogenous in cells; host or cells: Xanthomonas maltophilia (enzyme purified from the bacterium)
T4 sequence (P52700 34-290): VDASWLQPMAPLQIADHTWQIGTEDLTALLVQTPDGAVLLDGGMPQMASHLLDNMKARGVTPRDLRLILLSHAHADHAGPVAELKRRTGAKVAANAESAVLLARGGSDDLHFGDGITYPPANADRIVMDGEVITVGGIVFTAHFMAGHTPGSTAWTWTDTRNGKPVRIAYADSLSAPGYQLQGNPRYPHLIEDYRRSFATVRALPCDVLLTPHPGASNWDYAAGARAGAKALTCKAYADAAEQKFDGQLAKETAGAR
Method: as §1, §2, §3

[5] = read-out: Ki (inhibition constant), competitive inhibition, 1 mM cephalosporin C, 30° C., pH 6.5, 0.1 mM ZnCl2
[6] = competitive inhibition, 1 mM cephalosporin C, 30° C., pH 6.5, 0.1 mM ZnCl2, read-out: Ki (inhibition constant)

| SMILES | Ki [1] [µM] | Ki [2] [µM] | mode of inhibition of the A. hydrophila enzyme [3] | Ki [3] [µM] | Ki [4] [µM] | Ki [1, 5] [µM] | Ki ([4]; read-out: Ki (inhibition constant), competitive inhibition, 30 μm nitrocefin, 30° C., 30 mM sodium cacodylate pH 6.5, 0.1 mM ZnCl2) [µM] | Ki [1, 6] [µM] |
| --- | --- | --- | --- | --- | --- | --- | --- | --- |
| C[C@H](NC(=O)COc1ccccc1)C(=O)C(F)(F)F [Compound 6] | 30 | 300 | inactivators | 44 | 1.5 | – | – | – |
| O=C(COc1ccccc1)N[C@@H](Cc1ccccc1)C(=O)C(F)(F)F [Compound 3] | 500 | 530 | inactivators | 6 | 15 | – | – | – |
| C[C@H](NC(=O)COc1ccccc1)[C@H](O)C(F)(F)F [Compound 8] | – | 400 | – | – | – | 300 | – | – |
| C[C@@H](NC(=O)COc1ccccc1)C(=O)C(F)(F)F [Compound 7] | 700 | 500 | inactivators | 11 | 3 | – | – | – |
| O=C(COc1ccccc1)N[C@H](Cc1ccccc1)[C@H](O)C(F)(F)F [Compound 5] | – | 60 | inactivators | 20 | – | 30 | – | – |
| C[C@@H](NC(=O)COc1ccccc1)[C@H](O)C(F)(F)F [Compound 9] | – | 400 | inactivators | 217 | – | 700 | 35 | – |
| O=C(COc1ccccc1)N[C@H](Cc1ccccc1)C(=O)C(F)(F)F [Compound 2] | – | – | – | – | – | – | – | 1000 |
| O=C(CC(=O)C(F)(F)F)c1ccccc1 [Compound 1, reference compound] | – | – | – | – | – | – | – | 300 |
| O=C(COc1ccccc1)N[C@@H](Cc1ccccc1)[C@H](O)C(F)(F)F [Compound 4] | – | 900 | inactivators | 19 | – | 1000 | – | – |
